For assay [1], the system named is P. leiognathi. In words: ToxScreen-II toxicity assay (bacterial luminescence) with stored bacterial suspension. The class given is cell-based. As to conditions: light level after 30 minutes at 27° C. Here is the method:
In order to determine how long a bacterial suspension stored in a solution according to an exemplary embodiment of the invention could be useful in a toxicity assay, a toxicity assay (ToxScreen-II, CheckLight Ltd, Qiryat Tivon, Israel) was conducted repeatedly over time.
In the assay, 0.01 mL aliquots were drawn from the bacterial suspension (P. leiognathi) in the medium at 4 time points during 30 days and incubated with chemical toxicants in assay buffer diluted in mineral water. Light level was determined after 30 minutes at 27° C.

The test system of assay [2] is luminescent bacteria (e.g. Photobacterium leiognathi, Vibrio fischeri, Vibrio harveyi). Kind of assay: titration of medium components: luminescence during long term storage at refrigeration temperatures. The assay is classed as cell-based. Particulars: for effect of antibiotic on luminescence during long term storage: antibiotic at 15 mg/L in storage solution; for range I: concentrations that provided a marked improvement over negative control / range II: concentrations that produced no negative effect relative to negative control: based on results of examples 2 through 9; for concentration that slowed the reduction in luminescence better than other tested concentrations: storage at -2 to +4° C. over several weeks, other components constant as in Table 1, pH 7.2. The procedure: In order to identify storage conditions suitable for a long term medium for a suspension of luminescent bacteria (e.g. Photobacterium leiognathi, Vibrio fischeri, Vibrio harveyi) different concentrations of monovalent salts, sugars, sources of divalent cations, protein mixtures, albumins and alcohols were tested.
Each of the medium components (including pH) was tested separately while all other components were kept at a constant concentration as indicated in Table 1. For titration of other components pH was held constant at 7.2. The effect on bacterial luminescence of each component at each tested concentration (or pH value) was determined over a period of several weeks.
In order to perform the titration of the medium components, a bacterial culture was spread on LA plates at about 300 colonies per plate after over night growth. Colonies were collected from plates with ASW and centrifuged (10000 g, 10 minutes, 4° C.). Harvested bacteria were resuspended in the different solutions to form experimental bacterial suspensions.
Experimental bacterial suspensions were stored at −2° C.-+4° C. Each week an aliquot of each experimental bacterial suspension was drawn and diluted in artificial seawater (ASW: 0.5M NaCl, 50 mM MgSO47H2O, 10 mM CaCl22H2O, 10 mM KCl)) supplemented with 50 ppm yeast extract/glucose and incubated at 26° C.-28° C. Light level was recorded after 30 minutes.

In assay [3] the test system is E. coli harboring the luminescence system of V. fischeri. Particulars: titration as in Example 6; data not shown. Here is the method:
In order to determine the effect of monovalent salts on luminescence during long term storage at refrigeration temperatures, NaCl was added to medium at concentrations of 0.1, 0.5, 2.0, 3.0 and 4.5%. […] Assay of the effect of NaCl was as described in Example 1.

Results on eleven compounds are retold here after US20100190237A1, “COMPOSITIONS AND METHODS FOR STORAGE OF BACTERIAL SUSPENSIONS” (priority 2007, published 2010).

With `[Cl][Cd][Cl]` [CdCl2], the “Sensitivity of P. leiognathi to various toxicants” value (shortened to “Sensitivity of P. leiognathi”) was found to be 0.2 mg/L in assay [1] (Day 1 of storage), 0.25 mg/L in assay [1] (Day 7 of storage), 0.3 mg/L in assay [1] (Day 18 of storage) and 0.4 mg/L in assay [1] (Day 30 of storage).
Regarding `O=C(N[C@H](CO)[C@H](O)c1ccc([N+](=O)[O-])cc1)C(Cl)Cl` [chloramphenicol], the “effect of antibiotic on luminescence during long term storage” value in assay [2] was “slowed the reduction in luminescence better than other tested antibiotics”.
For the compound `[Cl-].[Na+]` [NaCl], in assay [2], the “range I: concentrations that provided a marked improvement over negative control” value (from here on “range I … over negative control”) is given as 2.0-3.0% and the “range II: concentrations that produced no negative effect relative to negative control” value is 1.0-3.0%. Besides, in assay [3], the “salt concentration determined to be useful (preserving luminescence)” value was 0.8-0.85%.
`CCO` [ethanol]: in assay [2], the “range I … over negative control” value is 1.0-3.5%, the “range II: concentrations that produced no negative effect relative to negative control” value is on record as 0.1-3.5% and the “concentration that slowed the reduction in luminescence better than other tested concentrations” value (“concentration that slowed the reduction” below) is given as no less than 1.5%.
On to `[Cl][Pb][Cl]` [PbCl2], for which the “Sensitivity of P. leiognathi” value in assay [1] (Day 1 of storage) was determined as 2 mg/L; in assay [1] (Day 7 of storage), 2.5 mg/L; in assay [1] (Day 18 of storage), 3 mg/L; in assay [1] (Day 30 of storage) it was 2.5 mg/L.
With `[K+].[K+].[O]=[Cr](=[O])([O-])[O][Cr](=[O])(=[O])[O-]` [K2Cr2O7], the “Sensitivity of P. leiognathi” value in assay [1] (Day 1 of storage) was determined as 0.5 mg/L; in assay [1] (Day 7 of storage), 0.7 mg/L; in assay [1] (Day 18 of storage) it was 0.5 mg/L; in assay [1] (Day 30 of storage) it was 0.6 mg/L.
Take `Clc1ccc(C(c2ccc(Cl)cc2)C(Cl)(Cl)Cl)cc1` [DDT]: the “Sensitivity of P. leiognathi” value in assay [1] (Day 1 of storage) came to 0.007 mg/L; in assay [1] (Day 7 of storage), 0.006 mg/L; in assay [1] (Day 18 of storage) it was 0.004 mg/L; in assay [1] (Day 30 of storage), 0.006 mg/L.
Turning to `O[C@H]1[C@H](O)[C@@H](O)[C@H](O)[C@@H](O)[C@H]1O` [inositol], in assay [2], the “range I … over negative control” value is recorded as 5.0-7.0%, the “range II: concentrations that produced no negative effect relative to negative control” value is given as 0.5-7.0% and the “concentration that slowed the reduction” value was 5%.
Regarding `CC1(C)S[C@@H]2[C@H](NC(=O)[C@H](N)c3ccccc3)C(=O)N2[C@H]1C(=O)O` [ampicillin], the “effect of antibiotic on luminescence during long term storage” value in assay [2] is listed as “slowed the reduction in luminescence better than other tested antibiotics”.
As to Bovine serum albumin [BSA], the “range II: concentrations that produced no negative effect relative to negative control” value in assay [2] is 0.02-1.0%.
On to `[Cl-].[Cl-].[Mg+2]` [magnesium, MgCl2], for which, in assay [2], the “range I … over negative control” value was 1.0 to 200 mM, the “range II: concentrations that produced no negative effect relative to negative control” value fell in the range of 0.0 to 300 mM and the “concentration that slowed the reduction” value was found to be 200 mM.
